# According to patent publication US20260265055A1, “Sulfine-Based Compounds for Generating Hydrogen Persulfide” (Brown University, priority 2023, published 2026):
# How the values were obtained:
# [1] = Oxidation of TT to TTS by ROS, UV-Vis (339 nm); assay type: physicochemical; details: for k2 (TT oxidation rate constant): PBS pH 7.4
# Experimental: TT was treated with H2O2, the most prevalent oxidant in biology. Stock solutions for hydrogen peroxide (H2O2), t-butyl hydroperoxide (^tBuOOH), peracetic acid (AcOOH), and sodium hypochlorite (NaOCl), were prepared in deionized water. H2O2 was diluted from a commercially available solution (30%). The concentration of H2O2 was determined using the absorption at 240 nm (ε=[…]). ^tBuOOH was diluted from commercially available solutions (70%). AcOOH was diluted from commercially available solutions (32%). NaOCl was diluted from commercially available solution containing 11-15% available chlorine. The concentration of HOCl was determined using the absorption at 292 nm (ε=[…]).
# TT was dissolved in DMSO to afford a 10 mM stock solution. For H2O2, ^tBuOOH and AcOOH, substrate TT (10 μM) and ROS (1 mM) were mixed in PBS buffer, pH=7.4 with DMSO (1%) under room temperature. For NaClO, TT (100 μM) and NaClO (1 mM) were mixed in PBS buffer, pH=7.4 with DMSO (1%) under room temperature. The rate of production of TTS was detected by UV-Vis spectrum (λ=339 nm) based on the decrease of TT. A pseudo-first order reaction was assumed; the second-order k constant (k2) was calculated using the method described below.
# (§1) The transformation from TT to TTS was clean. The progress of the reaction was monitored by UV-Vis spectra and the reaction rate constant (k2) was measured to be […]. The oxidation of TT by several other oxidants including t-BuOOH, AcOOH, and OCl^− was measured and the TT oxidation rate constants k2 are summarized in Table 1. ^aThe rate constant was estimated.
# [2] = NMR monitoring of the oxidation of TT to TTS; assay type: physicochemical; details: TT 20 mM in CD3CN/D2O (1:1) with H2O2, room temperature
# Experimental: To an NMR tube, the solution of TT (0.2 mmol, final concentration is 20 mM) in CD3CN/D2O (1:1) was added, followed by adding H2O2 (10 μM, 20 μM). The NMR tube was shacked immediately and incubated at room temperature for 0 min, 30 min, 3 h, and 24 h.
# as §1
# [3] = SSP4 fluorescence assay to determine generation of H2S2 in buffer; details: SSP4 5 μM
# Text: To further evaluate the specificity of TTS in converting H2S to H2S2, SSP4 was used to monitor the formation of H2S2 in this reaction and the results were compared with a series of controls. Details of the SSP4 experiments are provided later herein. SSP4 is a well-established fluorescent sensor for sulfane sulfurs including H2S2. See Shieh, M. et al., Shining a light on SSP4: a comprehensive analysis and biological applications for the detection of sulfane sulfurs. Redox Biol. 2022, 56, 102433. […] Without wishing to be bound by scientific theory, it is believed that thiols would compete with SSP4 to react with H2S2, thereby causing decreased signals.
# SSP4 was dissolved in DMSO to obtain a 200 μM stock solution. CTAB was dissolved in ethanol to yield a 2 mM stock solution. TTS and TT were dissolved in DMSO to make 1 mM stock solutions. Na2S, Na2S2, and L-cysteine were prepared in MilliQ H2O to obtain stock solutions at 2 mM, 1 mM, and 4 mM, respectively. 50 mM PBS buffer was added to individual wells of a black polystyrene, flat-bottomed clear 96-well plate, followed by TTS (25 μM) or TT (25 μM), and Na2S (50 μM), cysteine (100 μM), or Na2S2 (25 μM). For the interference assay, TTS or TT (25 μM) were added to wells with or without Na2S (50 μM). Samples were mixed by pipetting up and down and incubated in the dark at room temperature (rt) for 30 min. Next, CTAB (50 μM) was added to all wells followed by SSP4 (5 μM), and samples were mixed by pipetting up and down. The final volume was 200 μL in each well. Samples were then incubated in the dark at room temperature for another 30 min before being measured on a Molecular Devices SpectraMax iD3 Multi-Mode Microplate Reader (emission 525 nm; excitation 485 nm; integration time […], low PMT sensitivity, attenuation 1, read height 1.00 mm).
# HeLa cells = assay: Live cell imaging of H2S2 formation with SSP4; assay type: cell-based; details: 30 min
# Experimental: HeLa cells were seeded at ~7000 cells/well in a 96-well clear flat-bottomed BioLite plate (ThermoFisher Scientific, #130188) in DMEM/F12 (1:1) (Gibco, Invitrogen, #11330-032) medium supplemented with 10% fetal bovine serum (FBS) at 37° C., 5% CO2 overnight.
# Preparation before cell treatment: Na2S and Na2S2 stocks were prepared at 10 mM in sterile 1×PBS. TTS and TT were prepared at 10 mM concentrations in DMSO. They were then diluted to 50 μM concentrations in serum-free Fluorobrite DMEM in individual Eppendorf tubes (0.5% DMSO). Na2S (final concentration=100 μM) was added to the Eppendorf tube containing Fluorobrite DMEM and TTS or TT immediately before being added to the cells. Compounds were mixed by pipetting up and down prior to cell addition.
# Cell treatment: Culturing media was aspirated from all wells, and cells were washed twice with 1×PBS. Compounds were added to cells (200 μL/well) and incubated for 30 min at 37° C., 5% CO2. While cells were incubating, SSP4 treatment was prepared by first adding 5 mM CTAB in ethanol to Fluorobrite DMEM followed by 6.125 mM SSP4 in DMSO to final concentrations of 100 μM and 5 μM, respectively, in a tube. The final volume was 5 mL (0.08% DMSO). Compounds were mixed by pipetting up and down prior to cell addition. After incubation, media was aspirated, and cells were washed twice with 1×PBS. SSP4 treatment was added to all wells (100 μL/well), and cells were incubated for 30 min at 37° C., 5% CO2 for 30 min. Media was then aspirated, and cells were washed three times with 1×PBS. Fluorobrite DMEM was added to all wells before imaging on the Keyence All-in-One Fluorescence Microscope (BZ-X810) (excitation: 470/40 nm; emission: 525/50 nm).
# As shown in FIGS. 4(A)-(D), HeLa cells were treated with TTS, TTS+H2S, or TT for 30 min before the fluorescent sensor SSP4 was applied to the cells to monitor the formation of H2S2. […] Na2S2 was used as the positive control in this study (FIG. 4D). Other control studies including TT+H2S, H2S only, and SSP4 only were also performed. […] FIG. 4H is a graph of fluorescence intensities of SSP4 staining. Data are mean values ±SEM calculated using ImageJ. (n=9, where three different images were obtained from each of three samples and quantified).
smiles,measurement,setting,value
"COC(=O)c1ccc(=S)sc1 [TT, methyl 2-thioxo-2H-thiopyran-5-carboxylate]",k2 (TT oxidation rate constant),"[1]; ROS AcOOH 1 mM, TT 10 μM",13.9 M⁻¹ s⁻¹
same,k2 (TT oxidation rate constant),"[1]; ROS H2O2 1 mM, TT 10 μM",0.1 M⁻¹ s⁻¹
same,k2 (TT oxidation rate constant),"[1]; ROS OCl^− (NaClO 1 mM), TT 100 μM, rate constant was estimated",>1.0 × 10^3 M^−1 s^−1 a
same,k2 (TT oxidation rate constant),"[1]; ROS ^tBuOOH 1 mM, TT 10 μM",0.01 M⁻¹ s⁻¹
same,reaction rate constant (k2) of TT oxidation by H2O2,"[1]; UV-Vis, TT 10 μM, H2O2 1 mM, PBS pH 7.4, room temperature",0.1 M⁻¹ s⁻¹
same,time to completion of TT to TTS oxidation (NMR),[2],24 h
same,SSP4 fluorescence response (H2S2 formation),"[3]; 25 μM compound + 50 μM Na2S (H2S), PBS",No fluorescence
same,SSP4 fluorescence response (sulfane sulfur formation),[3]; 25 μM compound + 100 μM Cys,No fluorescence
same,SSP4 fluorescence response (H2S2 formation),[3]; 25 μM compound only,No fluorescence
same,SSP4 fluorescence in HeLa cells,HeLa cells; compound 50 μM + Na2S 100 μM,Obvious fluorescence in these samples was not observed
same,SSP4 fluorescence in HeLa cells,HeLa cells; compound only,did not show obvious fluorescence
